Measurements as given in paper PMC6270839, “Synthesis and Biological Evaluation of Novel 10-Substituted-7-ethyl-10-hydroxycamptothecin (SN-38) Prodrugs” (Molecules, 2014).
Like-named read-outs stand apart in the source and are kept apart here.

Assays:
[1] = tested on: HeLa human cervical carcinoma cell line; experiment: MTT in vitro antitumor (antiproliferative) assay, HeLa; format: cell-based; conditions: 72 h
Protocol: (§1) The in vitro antitumor activities were evaluated on human cancer cell lines SGC-7901 and HeLa by the MTT assay, using irinotecan as the reference compound.
(§2) The in vitro antitumor activity was evaluated on two human cancer cell lines with the MTT method. SGC-7901 is a human gastric adenocarcinoma cancer cell line and HeLa is a human cervical carcinoma cell line. Cells were provided by the Jilin Province Tumor Institute. Cells were maintained in IMDM medium supplemented with 10% fetal calf serum, 2 mM glutamine, 100 U/mL penicillin, and 100 μg/mL streptomycin, at 37 °C in a humidified atmosphere containing 5% CO2. The human cancer lines SGC-7901 and HELA at a concentration of […] were incubated in a 96-well microtiter plate (100 μL in every well) for 24 h (37 °C, 5%CO2). Then the cells were incubated continuously for 72 h following various concentrations of test drugs were added. The concentrations are 50 μM, 10 μM, 2 μM, 0.4 μM, 0.08 μM, 0.016 μM, 0.0032 μM, respectively. After the 100 μL 0.05% MTT solution was added to each well, the plate was incubated for a further 4 h before removal of medium, the media removed. Formazan crystals were dissolved with 100 μL DMSO, then the absorbance was detected at 490 nm.

[2] = tested on: SGC-7901 human gastric adenocarcinoma cancer cell line; experiment: MTT in vitro antitumor (antiproliferative) assay, SGC-7901; format: cell-based; conditions: for IC50: Homo sapiens, SGC-7901, 72 h, read-out: IC50 SGC-7901
Protocol: as §1, §2

[3] = tested on: human colon adenocarcinoma SW1116 xenografts; experiment: Tumor growth inhibition in human colon adenocarcinoma SW1116 xenografts in nude mice; format: in vivo; conditions: 60 mg/kg, injection in the tumor section once per day for 6 days; for Tumor Weight: SW1116 xenograft nude mice, x ± SD
Protocol: The antitumor activity of 5e, compared with CPT-11 and SN-38, was investigated in human colon adenocarcinoma SW1116 xenografts in nude mice. The model animals were divided into four experimental groups, eight animals per group. Tested compouds were each administered by injection in the tumor section once per day for contiguous 6 days. The injection doses of test compound 5e, CPT-11, and SN-38 were 60 mg/kg, respectively. Using the vehicle group as the control, we tested the inhibitory activities of these compounds for 6 days and measured the changes in body weight and tumor size every 2 days. […] No toxic death occurred after drug treatment, and the body weight losses induced by 5e, CPT-11, and SN-38 at the given dose were similar.

AChE from electric eel = AChE from electric eel (Electrophorus electricus, UniProt O42275); experiment: AChE inhibition assay (modified Ellman method); format: biochemical; conditions: AChE IC50, electric eel AChE, phosphate buffer pH 7.3, 37 °C
From the text: Irinotecan has been reported to be a potent inhibiter of AChE, and inhibition of this enzyme causes acute cholinergic diarrhea. Unlike irinotecan, the compounds we assayed were only weak inhibitors of AChE. […] One possible explanation is that the active site of AChE is present at the bottom of a gorge that is lined with hydrophobic amino acid residues. The terminal dipiperidino moiety in CPT-11 that interacts with amino acid residues within AChE plays a major role in enzyme inhibition, which has been confirmed by X-ray crystallographic studies.
The AChE inhibition by all compounds was studied according to a modification of the method of Ellman et al.. The activity was assayed with AChE from electric eel in the presence or absence of the test compounds in phosphate buffer (pH7.3). After the incubation at 37 °C for 1 min, 0.38 mM 5,5-dithiobisnitrobenzoic acid and 0.56 mM ATCh were added to the buffer. The changes in absorbance were read at 412 nm, per 15 s intervals for 3 min by a spectrophotometer (UV-2500, Shimadzu Corp., Kyoto, Japan).

[4] = Chemical stability of the prodrugs in PBS (HPLC); format: physicochemical; conditions: for Remaining Prodrugs 1 h pH 4.6 / Remaining Prodrugs 12 h pH 4.6: PBS pH 4.6, 37 °C; for Remaining Prodrugs 1 h pH 7.4 / Remaining Prodrugs 12 h pH 7.4: PBS pH 7.4, 37 °C
Protocol: They were stable at pH 4.6 at 37 °C for 12 h. Except for compound 5h, less than 35% of the prodrugs remained after incubation for 12 h in pH 7.4 buffer. […] For example, less than 30% of the prodrugs 7a–f remained, while more than 85% of the prodrugs 5a–h remained after incubation for 1 h in pH 7.4 buffer.
The stability of all compounds was investigated in PBS and human plasma by HPLC using a C18 analytical column. The mobile phase was composed of water and acetonitrile at a ratio of 70:30, respectively, containing 1% trifluoroacetic acid. The amount of the compound and its metabolite SN-38 were flowed at the rate of 0.8 mL·min^−1 and detected by the UV wavelength of 370 nm. Stability test in PBS: each compound was dissolved in PBS (pH 7.4 and pH 4.6), incubated at 37 °C and analyzed at 1, 3, 6, 12 h. Stability test in plasma: The test compounds were dissolved in DMSO and diluted to 1 mM by 0.9% physiological saline. Forty μL of each solution was added into plasma with a final concentration of 0.1 mM. The mixture was incubated in a 37 °C water bath following the vigorous vortex mixing for 15 s. Samples were analyzed at 1, 3, 6, 12 h. 400 μL of cold acetonitrile (containing 1% trifluoroacetic acid) was added to each sample, vortex-mixed for 15 s and centrifuged at 3500 rpm for 15 min at 4 °C.

AChE from electric eel, sequence (O42275 24-633): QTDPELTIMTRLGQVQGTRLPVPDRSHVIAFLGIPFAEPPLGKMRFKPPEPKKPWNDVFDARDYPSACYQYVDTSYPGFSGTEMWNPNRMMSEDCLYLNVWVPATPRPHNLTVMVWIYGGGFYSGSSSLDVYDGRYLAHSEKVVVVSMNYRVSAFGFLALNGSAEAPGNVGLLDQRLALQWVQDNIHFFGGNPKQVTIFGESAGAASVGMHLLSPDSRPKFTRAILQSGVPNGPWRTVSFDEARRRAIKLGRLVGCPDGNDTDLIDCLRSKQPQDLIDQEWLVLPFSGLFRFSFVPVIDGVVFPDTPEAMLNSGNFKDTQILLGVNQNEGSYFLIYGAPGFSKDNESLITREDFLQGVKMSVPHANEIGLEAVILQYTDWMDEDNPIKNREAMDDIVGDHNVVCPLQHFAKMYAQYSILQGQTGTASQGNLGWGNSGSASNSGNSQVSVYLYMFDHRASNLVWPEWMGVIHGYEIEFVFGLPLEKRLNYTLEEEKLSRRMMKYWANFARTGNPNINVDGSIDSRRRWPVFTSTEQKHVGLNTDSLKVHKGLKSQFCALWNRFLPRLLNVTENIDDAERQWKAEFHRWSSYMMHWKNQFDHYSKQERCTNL

Row | SMILES | IC50 ([1]; read-out: IC50 HeLa) [nM] | IC50 [2] [nM] | Tumor Weight [3] [g/10g] | IC50 (AChE from electric eel) [nM] | Remaining Prodrugs 1 h pH 4.6 [4] [%] | Remaining Prodrugs 12 h pH 4.6 [4] [%] | Remaining Prodrugs 1 h pH 7.4 [4] [%] | Remaining Prodrugs 12 h pH 7.4 [4] [%] | IC50 ([1]; read-out: IC50 against HeLa cells) [nM] | fold greater antiproliferative activity (lower IC50) than irinotecan, SGC-7901 cells ([2]; IC50 ratio vs irinotecan) [fold] | Inhibitory Rate ([3]; day 6, vs vehicle) [%]
1 | CCc1c2c(nc3ccc(OC(=O)NC(CC(C)C)C(=O)O)cc13)-c1cc3c(c(=O)n1C2)COC(=O)[C@]3(O)CC (stereo partly shown) [Compound 5e, 10-OCO-(Leu-OH)-SN-38] | 1.82 | 500 ± 190 | 0.17 ± 0.05 |  |  |  |  |  |  |  | 
2 | CCc1c2c(nc3ccc(OC(=O)N[C@H](CC(=O)O)C(=O)O)cc13)-c1cc3c(c(=O)n1C2)COC(=O)[C@]3(O)CC [Compound 5g, 10-OCO-(L-Asp-OH)-SN-38] | 9.07 | 980 ± 50 |  | 3080 | 100 | 94.5 | 93.9 | 34.1 |  |  | 
3 | CCc1c2c(nc3ccc(OC(=O)NC(C)C(=O)O)cc13)-c1cc3c(c(=O)n1C2)COC(=O)[C@]3(O)CC (stereo partly shown) [Compound 5b, 10-OCO-(Ala-OH)-SN-38] | 9.85 | 1750 ± 600 |  |  |  |  |  |  |  |  | 
4 | CCc1c2c(nc3ccc(OC(=O)NC(C)C(=O)NC(CCC(=O)O)C(=O)O)cc13)-c1cc3c(c(=O)n1C2)COC(=O)[C@]3(O)CC (stereo partly drawn) [Compound 7f, 10-OCO-(Glu-Ala-OH)-SN-38] | 1.57 | 270 ± 180 |  | 36100 | 100 | 94.7 | 14.4 | 0 | < 3.2 | 30 | 
5 | CCc1c2c(nc3ccc(OC(=O)NCC(=O)N[C@H](CC(=O)O)C(=O)O)cc13)-c1cc3c(c(=O)n1C2)COC(=O)[C@]3(O)CC [Compound 7a, 10-OCO-(D-Asp-Gly-OH)-SN-38] | < 3.2 | 1040 ± 900 |  | 116000 | 100 | 96.8 | 26.0 | 0 |  |  | 
6 | CCc1c2c(nc3ccc(O)cc13)-c1cc3c(c(=O)n1C2)COC(=O)[C@]3(O)CC [SN-38, 7-ethyl-10-hydroxycamptothecin] |  |  | 0.32 ± 0.12 |  |  |  |  |  |  |  | 8.6
7 | CCc1c2c(nc3ccc(OC(=O)NCC(=O)O)cc13)-c1cc3c(c(=O)n1C2)COC(=O)[C@]3(O)CC [Compound 5a, 10-OCO-(Gly-OH)-SN-38] | 30.4 | 2690 ± 110 |  | 19800 | 100 | 98.4 | 85.3 | 14.8 |  |  | 
8 | CCc1c2c(nc3ccc(OC(=O)NCC(=O)N[C@@H](CC(=O)O)C(=O)O)cc13)-c1cc3c(c(=O)n1C2)COC(=O)[C@]3(O)CC [Compound 7b, 10-OCO-(L-Asp-Gly-OH)-SN-38] | 14.8 | 610 ± 680 |  |  | 100 | 96.9 | 17.6 | 0 |  |  | 
